Data taken from ChEMBL document CHEMBL4184216, “Diversity oriented synthesis of chromene-xanthene hybrids as anti-breast cancer agents” (Bioorg Med Chem Lett, 2018).
Structures can show the parent of a compound that is named as a salt. The source made the active and inactive calls. No cut-off for these calls is given here.

Assays:
MCF7 = test: Cytotoxicity against human MCF7 cells assessed as reduction in cell viability incubated for 24 hrs by MTT assay; assay type: functional, cell-based; conditions: MCF7, 24 h
MDA-MB-231 [1] = test: Cytotoxicity against human MDA-MB-231 cells assessed as reduction in cell viability incubated for 24 hrs by MTT assay; assay type: functional, cell-based; conditions: MDA-MB-231, 24 h
HEK293 = test: Cytotoxicity against HEK293 cells assessed as reduction in cell viability incubated for 24 hrs by MTT assay; assay type: ADME, cell-based; conditions: Homo sapiens, HEK293, 24 h
MDA-MB-231 [2] = test: Induction of apoptosis in human MDA-MB-231 cells at 0.125 to 0.25 uM incubated for 24 hrs by Annexin V-FITC/propidium iodide staining based flow cytometry; assay type: functional, cell-based
MDA-MB-231 [3] = test: Cell cycle arrest in human MDA-MB-231 cells assessed as increase in accumulation at subG1 phase at 0.125 uM incubated for 24 hrs by propidium iodide staining based flow cytometry; assay type: functional
MDA-MB-231 [4] = test: Cell cycle arrest in human MDA-MB-231 cells assessed as increase in accumulation at G1 phase at 0.125 to 0.25 uM incubated for 24 hrs by propidium iodide staining based flow cytometry; assay type: functional
MDA-MB-231 [5] = test: Cell cycle arrest in human MDA-MB-231 cells assessed as reduction in accumulation at G2/M phase at 0.125 to 0.25 uM incubated for 24 hrs by propidium iodide staining based flow cytometry; assay type: functional

| SMILES | IC50 (MCF7) | IC50 (MDA-MB-231 [1]) | IC50 (HEK293) | Activity (MDA-MB-231 [2]) | Activity (MDA-MB-231 [3]) | Activity (MDA-MB-231 [4]) | Activity (MDA-MB-231 [5]) |
| --- | --- | --- | --- | --- | --- | --- | --- |
| COc1ccc2c(c1)C(c1ccc(SC)cc1)C1=C(O2)c2ccccc2OC1(C)C (stereo not given) | 20 µM | 17.1 µM | > 25 µM | – | – | – | – |
| COc1cccc(C2C3=C(Oc4ccc(C[C@@H](CO)NC(=O)OC(C)(C)C)cc42)c2ccccc2OC3(C)C)c1 (stereo not given in full) | 29.9 µM | 2.9 µM | > 25 µM | – | – | – | – |
| CSc1ccc(C2C3=C(Oc4ccc(C[C@@H](CO)NC(=O)OC(C)(C)C)cc42)c2ccccc2OC3(C)C)cc1 (stereo not given in full) | 32 µM | 21.1 µM | > 25 µM | – | – | – | – |
| COc1cccc(C2C3=C(Oc4ccc(C[C@H](N)CO)cc42)c2ccccc2OC3(C)C)c1 (stereo not given in full) | 2.1 µM | 3.5 µM | > 25 µM | – | – | – | – |
| COc1ccccc1C1C2=C(Sc3ccc(Cl)cc31)c1ccccc1OC2(C)C (stereo not given) | 39.5 µM | 48.6 µM | > 25 µM | – | – | – | – |
| CC1(C)Oc2ccccc2C2=C1C(c1cccs1)c1cc(Cl)ccc1S2 (stereo not given) | 22.3 µM | 29 µM | > 25 µM | – | – | – | – |
| COc1ccccc1C1C2=C(Oc3ccc(C[C@H](N)CO)cc31)c1ccccc1OC2(C)C (stereo not given in full) | 2.6 µM | 2.5 µM | > 25 µM | Dose-dependent effect | Active | Active | Active |
| COc1ccccc1C1C2=C(Oc3ccc(C[C@H]4COC(C)(C)N4C(=O)OC(C)(C)C)cc31)c1ccccc1OC2(C)C (stereo not given in full) | 22.3 µM | 29 µM | > 25 µM | – | – | – | – |
| COc1cccc2c1C(c1cccs1)C1=C(S2)c2ccccc2OC1(C)C (stereo not given) | 26.3 µM | 29 µM | > 25 µM | – | – | – | – |
| CC/C(=C(\c1ccccc1)c1ccc(OCCN(C)C)cc1)c1ccccc1 [TAMOXIFEN CITRATE] | – | – | 30 µM | – | – | – | – |
| COc1ccc(C2C3=C(Sc4ccc(Cl)cc42)c2ccccc2OC3(C)C)cc1 (stereo not given) | 39 µM | 19.1 µM | > 25 µM | – | – | – | – |
